# Measured values published in PMC10714399, “Open Source Antibiotics: Simple Diarylimidazoles Are Potent against Methicillin-Resistant Staphylococcus aureus” (ACS Infectious Diseases, 2023).
# Counter-ions that a name gives are not always drawn. Like-named read-outs stand apart in the source and are kept apart here.
# Key:
# [1] = tested on: Staphylococcus aureus NCTC 13373 (mecA-positive; methicillin-resistant); assay: In vitro antibacterial activity, MIC (UCL School of Pharmacy assay), MRSA; format: cell-based; settings: Staphylococcus aureus
# Procedure, shortened: (§1)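 Broth microdilution MIC in isosensitest broth; inoculum from overnight tryptone soya agar culture suspended in PBS to A600 0.1 (~1 × 10^8 CFU/mL), then diluted 1:100. Compounds tested as 2-fold series from 32 to 0.03 μg/mL, DMSO at most 2%; vancomycin as quality control.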
# [2] = tested on: Enterococcus faecalis ATCC 51299 (vanA-positive; vancomycin-resistant); assay: In vitro antibacterial activity, MIC (UCL), VRE; format: cell-based; settings: read-out: VRE MIC
# Procedure, shortened: as §1
# [3] = HEK293 toxicity, 96-well dose-response (UCL; MTT or resazurin, with or without recovery); format: cell-based, human; settings: human, HEK293 cells; 32 μg/mL; read-out: spread of Dmax values comparing recovery and non-recovery conditions
# Experimental: The importance of balancing potency vs MRSA and cytotoxicity led us to examine a subset of compounds more thoroughly for toxicity against human embryonic kidney cell line HEK293. […] Dmax is a parameter that quantifies toxicity at the highest tested concentration (32 μg/mL for all compounds), calculated as reciprocal percentage of viable cells (100 – viability%), where cells either were allowed to recover or viability was measured immediately after treatment. […] Our efforts focused on trying to replicate the original toxicity experiments (by CO-ADD) with tamoxifen using a protocol modified for use with 96-well plates. Given the variability of protocols and results in the literature,[28] it was important to compare with a standard protocol we have reliably used in our own laboratories.[29]−[33] […] Truly “non-toxic” compounds might be expected to show Dmax < 50% for all experiment variations, e.g., 861. […] A large spread of Dmax values comparing recovery and non-recovery conditions larger than 20% is perhaps indicative of a mechanism of toxicity that persists beyond exposure, i.e., cytotoxic compounds that continue to induce toxicity as cells recover and restart dividing, for example, compounds 865, 870, 871, 980, and 981. […] This variability could be driven by interference of the compounds with the fluorescence readout or resorufin build-up as previously described.[27]
# HEK293 cells (ATCC, UK) at passage 32 were a kind gift from Dr. Ben Allsop from the Translational Research Office at University College London. Cells were tested for mycoplasma using a MycoAlert Detection Kit (Lonza, Switzerland) as per manufacturer instructions, frozen stocks were stored in liquid nitrogen, and cells were re-tested whenever a new aliquot was thawed.
# Cells were maintained in DMEM (Sigma-Aldrich, UK) supplemented with 10% heat-inactivated FBS (Sigma-Aldrich, UK), 1% GlutaMax (ThermoFisher, UK), and 1% sodium pyruvate (Lonza, UK) without antibiotics in an incubator at 37 °C and 5% CO2. Media was changed every 2 days, and cells were passaged every 3–4 days at a subcultivation ratio of 1:10, by detaching the cells with phenol-free TrypLE Express (ThermoFisher, UK), after washing with HBSS Ca^2+/Mg^2+ (ThermoFisher, UK). Up to 55 passages were used throughout the experiments.
# (a) Cell seeding: At subculture, a dilute solution of cells was counted using Trypan Blue (Sigma-Aldrich, UK) and a hemocytometer. Cells were further diluted to 7000 or 50 000 cells/mL for experiments.
# For recovery experiments, 700 cells (100 μL) were seeded in 96-well plates and incubated for 48 h while cells reached exponential phase.
# For non-recovery experiments, 5000 cells (100 μL) were seeded in 96-well plates and incubated for 48 h while cells reached confluence. This is the same number of cells as per the CO-ADD protocol where 384-well plates were used, but we extended the growth time to 48 h to produce a similar confluency.
# Stock solutions were diluted 100 times (to 1% DMSO) to 32 μg/mL in full medium (vortexed briefly) and then serially diluted using a digital pipet (Explorer, Eppendorf, Germany) at a dilution factor of 2 to a final concentration of […].
# (c) Dosing experiments: At the specified time after seeding, media was removed from cells, cells were washed with HBSS Ca^2+/Mg^2+ (100 μL), and 100 μL of diluted compounds were added as per Supporting Information - Biology, Figure S4, and incubated for 24 h.
# After treatment, solutions were removed, and cells were washed with HBSS Ca^2+/Mg^2+. For non-recovery experiments, viability was determined immediately as described below.
# For recovery experiments, fresh media was added to plates (100 μL) and cells were returned to the incubator for another 72 h, after which viability was recorded as described below.
# i. MTT assay: 3-[4,5-Dimethylthiazol-2-yl]-2,5-diphenyltetrazolium bromide (MTT) (Sigma-Aldrich, UK) was dissolved in sterile PBS at 5 mg/mL with sonication (20 min), protected from light. […]
# [4] = tested on: Staphylococcus aureus ATCC 43300 MRSA; assay: CO-ADD antibacterial assay (growth inhibition, MIC), MRSA; format: cell-based
# Experimental: Hit Confirmation of active compounds by whole cell growth inhibition assays was conducted as an 8-point dose response to determine the Minimum Inhibitory Concentration (MIC), in duplicate (n=2). The inhibition of growth is measured against those microorganisms that […]
# Included in the Hit Confirmation were 5 bacteria: Escherichia coli, Klebsiella pneumoniae, Acinetobacter baumannii, Pseudomonas aeruginosa and Staphylococcus aureus, and 2 fungi Candida albicans and Cryptococcus neoformans. […]
# Assay Parameters Bacteria Fungi HEK293 Haemolysis […]
# Duplicate (n=2) Duplicate (n=2) Duplicate (n=2) Duplicate (n=2)
# QC Control MIC: Control MIC: Control CC50: Control HC10:
# Non-Binding Non-Binding TC, 384-well Polypropylene
# Plates Surface (NBS), Surface (NBS), black wall/clear 384-well and 384-well plate 384-well plate bottom polystyrene 384-
# Cation-adjusted Yeast Nitrogen DMEM
# Media Mueller Hinton Base supplemented 0.9% NaCl
# Hit Confirmation outcomes are detailed in individual Project reports, personalised for each Project Submission for each CO-ADD user.
# Please see your data sheet with file extension P0XXX_HC_data.xlsx, for example CO-ADD Project P0100, P0100_HC_data.xlsx
# Study: HC_data ID: HC-Procedures & Materials
# Date: Last updated June 2018 Confidential Page 3 of 11
# (1 picture or pasted object on this page, not shown here)
# Samples were provided by the collaborator and stored frozen at -20 °C. Samples were prepared in DMSO and water to a final testing concentration of 32 µg/mL or 20 µM (unless otherwise indicated in the data sheet) and serially diluted 1:2 fold for 8 times. Each sample concentration was prepared in 384-well plates, non-binding surface plate (NBS; Corning 3640) for each bacterial/fungal strain, tissue-culture treated (TC-treated; Corning 3712/3764) black for mammalian cell types and polypropylene 384-well (PP; Corning 3657) for haemolysis assays, all in duplicate (n=2), and keeping the final DMSO concentration to a maximum of 0.5%. All the sample preparation was done using liquid handling robots. […]
# detailed in the Data sheet for the individual Project.
# All bacteria were cultured in Cation-adjusted Mueller Hinton broth (CAMHB) at 37 °C overnight. A sample of each culture was then diluted 40-fold in fresh broth and incubated at 37 °C for 1.5-3 h. The resultant mid-log phase cultures were diluted (CFU/mL measured by OD600), then added to each well of the compound containing plates, giving a cell density of 5×10^5 CFU/mL and a total volume of 50 µL. All the plates were covered and incubated at 37 °C for 18 h without shaking.
# Inhibition of bacterial growth was determined measuring absorbance at 600 nm (OD600), using a Tecan M1000 Pro monochromator plate reader. The percentage of growth inhibition was calculated for each well, using the negative control (media only) and positive control (bacteria without inhibitors) on the same plate as references.
# The percentage of growth inhibition was calculated for each well, using the negative control (media only) and positive control (bacteria without inhibitors) on the same plate. The MIC […]
# by an inhibition ≥ 80%. In addition, the maximal percentage of growth inhibition is reported as DMax, indicating any compounds with partial activity.
# Date: Last updated June 2018 Confidential Page 5 of 11
# Material Code Brand/Supplier Cat No.
# Compound preparation plate, Polypropylene PP Corning 3364
# Assay Plates – Antimicrobial
# Non-binding surface NBS 384w Corning 3640
# Assay Plates – Cytotoxicity
# Tissue culture treated Black/Clear bottom 384w Corning 3712
# Assay Plates - Haemolysis PP-Haem Corning 3657 […]
# Growth media - bacteria CAMHB Bacto Laboratories 212322
# Culture agar - fungi YPD Becton Dickinson 242720
# Growth media - fungi YNB Becton Dickinson 233520
# Resazurin Sigma-Aldrich R7017
# Dulbecco's Modified Eagle Medium DMEM Life Technologies 11995-073
# Foetal Bovine Serum FBS Bovogen FFBS-500
# 0.9% NaCl Saline Baxter AHF7124
# Sample Name Sample ID MW Conc. Solvent Source […]
# [5] = tested on: S. aureus ATCC 25923 (methicillin-susceptible); assay: In vitro antibacterial activity, MIC (UCL), MSSA; format: cell-based, Staphylococcus aureus; settings: Staphylococcus aureus
# Procedure, shortened: as §1
# [6] = tested on: MRC-5SV2 (human lung fibroblast cell line); assay: Toxicity against MRC-5SV2; format: cell-based
# Experimental: (§2) ADME and toxicity for compounds were measured according to procedures outlined in the manuscript submitted in parallel to this one;2 other procedures were used for those compounds analysed by Monash University (in vitro ADME) or UCL (toxicity), both described in the main
# [7] = tested on: PMM (primary mouse macrophages); assay: Toxicity against PMM; format: cell-based
# Experimental: as §2
compound,measurement,setting,value
c1ccc(-c2c(-c3ccccn3)nc3n2CCC3)cc1 [compound 870],MIC,[1]; read-out: MRSA MIC,32 µg/mL
same,MIC,[2],> 32 µg/mL
same,"Dmax spread between recovery and non-recovery conditions at 24 h, 32 μg/mL",[3],> 20%
COc1cccc(-c2c(-c3ccccn3)nc3n2CCC3)c1 [OSA_000825],MIC,[4]; read-out: MRSA MIC (CO-ADD),16 µg/mL
CSc1ccc(-c2c(-c3ccccn3)nc3n2CCC3)cc1 [OSA_000824],MIC,[4]; read-out: MRSA MIC (CO-ADD),4 µg/mL
CCN(c1ccc(F)cc1)c1c(-c2ccccn2)nc2ccccn12 [compound 981],MIC,[1]; read-out: MRSA MIC,2 µg/mL
same,MIC,[5]; read-out: MSSA MIC,2 µg/mL
same,MIC,[2],8 µg/mL
same,MRC5 TC50,[6],1.6 µg/mL
same,PMM TC50,[7],2.7 µg/mL
same,"Dmax spread between recovery and non-recovery conditions at 24 h, 32 μg/mL",[3],> 20%
"CN[C@H](CC(C)C)C(=O)N[C@H]1C(=O)N[C@@H](CC(N)=O)C(=O)N[C@H]2C(=O)N[C@H]3C(=O)N[C@H](C(=O)N[C@H](C(=O)O)c4cc(O)cc(O)c4-c4cc3ccc4O)[C@H](O)c3ccc(c(Cl)c3)Oc3cc2cc(c3O[C@@H]2O[C@H](CO)[C@@H](O)[C@H](O)[C@H]2O[C@H]2C[C@](C)(N)[C@H](O)[C@H](C)O2)Oc2ccc(cc2Cl)[C@H]1O [Vancomycin - HCl, Vancomycin - HCL, reference compound]",MIC,[4]; read-out: MIC MRSA (CO-ADD),1 µg/mL
COc1ccc(-c2c(-c3ccccn3)nc3n2CCC3)cc1OC [OSA_000820],MIC,"[1]; UCL, read-out: MRSA MIC (UCL)",> 32 µg/mL
same,MIC,[5]; read-out: MSSA MIC (UCL),> 32 µg/mL
same,MIC,[4]; read-out: MRSA MIC (CO-ADD),32 µg/mL
c1cncc(-c2nc3n(c2-c2ccc4c(c2)OCO4)CCC3)c1 [OSA_000816],MIC,[4]; read-out: MRSA MIC (CO-ADD),> 32 µg/mL
c1ccc(-c2nc3ncccn3c2-c2ccc3c(c2)OCO3)nc1 [OSA_000815],MIC,[4]; read-out: MRSA MIC (CO-ADD),> 32 µg/mL
COc1ccc(-c2c(-c3ccccn3)nc3n2CCC3)cc1 [OSA_000823],MIC,[4]; read-out: MRSA MIC (CO-ADD),16 µg/mL
COc1ccc2nc(-c3ccccn3)c(N(C)c3ccc(F)cc3)n2c1 [compound 980],MIC,[1]; read-out: MRSA MIC,4 µg/mL
same,MIC,[5]; read-out: MSSA MIC,4 µg/mL
same,MIC,[2],8 µg/mL
same,MRC5 TC50,[6],0.7 µg/mL
same,PMM TC50,[7],2.8 µg/mL
same,"Dmax spread between recovery and non-recovery conditions at 24 h, 32 μg/mL",[3],> 20%
c1ccc(-c2nc3n(c2-c2ccc4ccsc4c2)CCC3)nc1 [OSA_000830],MIC,[4]; read-out: MRSA MIC (CO-ADD),4 µg/mL
